US10988456B2, “O-aminoheteroaryl alkynyl-containing compound, preparation method therefor, and use thereof” (SHANGHAI INSTITUTE OF MATERIA MEDICA, CHINESE ACADEMY OF …, priority 2017, dated 2021)
“Also recorded” adds a separate entry of the source.

Legend:
[1] = tested on: RET signaling pathway in TT and BaF3/CCDC6-RET cells; test: Western blotting of RET signaling pathway activation in cells; type: cell-based; details: compounds 2 hours; P-RET, P-AKT, P-ErK
Method: Detecting the Effect of Compounds on the Activation of RET Signaling Pathway in TT and BaF3/CCDC6-RET Cells by Western Blotting
The cells were seeded into a 12-well plate (250,000/well). After incubation for 18-24 hours, the compounds were added to react for 2 hours, and then the cells were collected and firstly washed once with cold PBS (containing 1 mmol sodium vanadate); then 1×SDS gel loading buffer (50 mmol Tris-HCl (pH 6.8), 100 mmol DTT, 2% SDS, 10% glycerol, 1 mmol sodium vanadate, 0.1% bromophenol blue) was added to lyse cells. The cell lysate was heated in a boiling water bath for 10 minutes, and then centrifuged at 12,000 rpm for 10 minutes at 4° C.
The supernatant was taken for SDS-PAGE electrophoresis (Mini-PROTEAN 3 Cell, Bio-Rad, Hercules, Calif., USA). After electrophoresis, the proteins were transferred to a nitrocellulose membrane using a semi-dry electrotransfer system (Amersham Life Sciences, Arlington Heights, Ill., USA). The nitrocellulose membrane was placed in a blocking solution (5% skim milk powder diluted in TBS containing 1 mmol sodium vanadate) for 2 hours at room temperature, and then the membrane was placed and reacted with a primary antibody at 4° C. overnight. […] The membrane was placed in a secondary antibody solution and reacted for 1-2 hours at room temperature. After the membrane was washed three times as above, the membrane was stained using ECL (Picece, Rockford, Ill.) reagent was used for staining and then developed.

[2] = tested on: human gastric cancer SNU-16 xenografts; test: Growth of subcutaneous xenografts of human gastric cancer SNU-16 in nude mice (HuFGFR267 study); type: in vivo; details: for relative tumor proliferation rate T/C: day 21; for Weight (g, mean ± SD): SNU-16 tumor-bearing mice
Method: The diameter of the subcutaneously implanted tumor in nude mice was measured by a vernier caliper. […] In the compound HuFGFR267 50 mg/kg group, the compound was formulated with 0.5% methylcellulose (MC) to the required concentration before use. […] The positive control drug AZD4547 was diluted to the required concentration with water for injection containing 1% Tween 80 before use. […] In the solvent control group, an equal amount of water for injection was administrated.

SMILES: CN1CCN(Cc2ccc(NC(=O)c3ccc(Cl)c(C#Cc4cccnc4N)c3)cc2C(F)(F)F)CC1 [Example 1, 3-(2-aminopyridine-3-ethynyl)-4-chloro-N-(4-((4-methylpiperazin-1-yl)methylene)-3-(trifluoromethyl)phenyl)benzamide]
- inhibition of RET phosphorylation and downstream signaling pathway (Western blot, FIG. 1) [1]: inhibited RET phosphorylation and the downstream signaling pathway
- relative tumor proliferation rate T/C ([2]; SNU-16, 25 mg/kg orally once a day for 21 days): 18.55%
- Relative tumor volume RTV (mean ± SD) ([2]; SNU-16, 25 mg/kg orally once a day, d0): 1.00 ± 0.00
- Relative tumor volume RTV (mean ± SD) ([2]; SNU-16, 25 mg/kg orally once a day, d3): 1.74 ± 0.58
- Relative tumor volume RTV (mean ± SD) ([2]; SNU-16, 25 mg/kg orally once a day, d7): 2.51 ± 0.93
- Relative tumor volume RTV (mean ± SD) ([2]; SNU-16, 25 mg/kg orally once a day, d10): 3.13 ± 1.51
- Relative tumor volume RTV (mean ± SD) ([2]; SNU-16, 25 mg/kg orally once a day, d14): 3.79 ± 1.93
- Relative tumor volume RTV (mean ± SD) ([2]; SNU-16, 25 mg/kg orally once a day, d17): 3.97 ± 1.58
- Relative tumor volume RTV (mean ± SD) ([2]; SNU-16, 25 mg/kg orally once a day, d21): 4.35 ± 2.03
- relative tumor proliferation rate T/C ([2]; SNU-16, 50 mg/kg orally once a day for 21 days): 11.66%
- Relative tumor volume RTV (mean ± SD) ([2]; SNU-16, 50 mg/kg orally once a day, d0): 1.00 ± 0.00
- Relative tumor volume RTV (mean ± SD) ([2]; SNU-16, 50 mg/kg orally once a day, d3): 1.11 ± 0.42
- Relative tumor volume RTV (mean ± SD) ([2]; SNU-16, 50 mg/kg orally once a day, d7): 0.83 ± 0.49
- Relative tumor volume RTV (mean ± SD) ([2]; SNU-16, 50 mg/kg orally once a day, d10): 1.26 ± 0.71
- Relative tumor volume RTV (mean ± SD) ([2]; SNU-16, 50 mg/kg orally once a day, d14): 1.89 ± 1.57
- Relative tumor volume RTV (mean ± SD) ([2]; SNU-16, 50 mg/kg orally once a day, d17): 2.02 ± 1.63
- Relative tumor volume RTV (mean ± SD) ([2]; SNU-16, 50 mg/kg orally once a day, d21): 2.73 ± 2.82
- body weight of tumor-bearing mice (in words) ([2]; SNU-16, HuFGFR267 50 mg/kg and 25 mg/kg groups): no significant change; also recorded: did not change significantly
- animal deaths during the experiment ([2]; SNU-16, each group (HuFGFR267 50 and 25 mg/kg, AZD4547 12.5 mg/kg)): no mice died
- Weight (g, mean ± SD) ([2]; 25 mg/kg orally once a day, d0): 18.6 ± 1.6 g
- Weight (g, mean ± SD) ([2]; 25 mg/kg orally once a day, d3): 19.4 ± 1.7 g
- Weight (g, mean ± SD) ([2]; 25 mg/kg orally once a day, d7): 20.0 ± 1.8 g
- Weight (g, mean ± SD) ([2]; 25 mg/kg orally once a day, d10): 20.9 ± 1.8 g
- Weight (g, mean ± SD) ([2]; 25 mg/kg orally once a day, d14): 21.3 ± 1.7 g
- Weight (g, mean ± SD) ([2]; 25 mg/kg orally once a day, d17): 21.2 ± 1.6 g
- Weight (g, mean ± SD) ([2]; 25 mg/kg orally once a day, d21): 21.4 ± 1.8 g
- Weight (g, mean ± SD) ([2]; 50 mg/kg orally once a day, d0): 18.9 ± 1.9 g
- Weight (g, mean ± SD) ([2]; 50 mg/kg orally once a day, d3): 19.4 ± 2.2 g
- Weight (g, mean ± SD) ([2]; 50 mg/kg orally once a day, d7): 19.9 ± 2.4 g
- Weight (g, mean ± SD) ([2]; 50 mg/kg orally once a day, d10): 20.6 ± 2.3 g
- Weight (g, mean ± SD) ([2]; 50 mg/kg orally once a day, d14): 20.5 ± 2.2 g
- Weight (g, mean ± SD) ([2]; 50 mg/kg orally once a day, d17): 20.8 ± 2.3 g
- Weight (g, mean ± SD) ([2]; 50 mg/kg orally once a day, d21): 20.7 ± 2.2 g
